US6399579B1, “Compositions comprising icariside I and anhydroicaritin and methods for making the same” (Hauser, Inc., priority 2000, dated 2002)
Where two headings read alike, the source gives them in different places.

Legend:
[1] = molecular target: phosphodiesterase type V (PDE-5) (Homo sapiens, UniProt O76074); assay: PDE-5 inhibition assay; format: biochemical
[2] = Partition of icariside I between ethyl acetate and water; format: physicochemical; conditions: hydrolyzate adjusted to pH 7.0
Description: The ethanolic hydrolyzate (25 mL) prepared in Example 1 was mixed with 62.5 mL of de-ionized water and the pH was adjusted to 7.0 using 50% (w/w) sodium hydroxide solution. The resulting mixture was extracted with three 25 mL portions of ethyl acetate and the combined ethyl acetate extracts were back extracted with 150 mL of water.

PDE-5 IC50 [1]	PDE-5 inhibition (in words) [1]	IC50 ([1]; read-out: PDE-5 IC50 (converted))	partition coefficient between ethyl acetate and water [2]	IC50 [1]	PDE-5 inhibition (in words) ([1]; listed as anhydroicaritin)	Compound
21.50 μg/mL	essentially inactive					COc1ccc(-c2oc3c(CCC(C)(C)O)c(O[C@@H]4O[C@H](CO)[C@@H](O)[C@H](O)[C@H]4O)cc(O)c3c(=O)c2O)cc1 [Entry 12, icariside I hydrate]
	strong PDE-5 inhibitor	622 nM	16			COc1ccc(-c2oc3c(CC=C(C)C)c(O[C@@H]4O[C@H](CO)[C@@H](O)[C@H](O)[C@H]4O)cc(O)c3c(=O)c2O)cc1 [Entry 10, icariside I]
	significant inhibition of PDE-5			4070 nM	strong PDE-5 inhibitor	COc1ccc(-c2oc3c(CC=C(C)C)c(O)cc(O)c3c(=O)c2O)cc1 [Entry 11, anhydroicaritin]
